SMILES strings stand for the structures.

This data set can be described thus: gradient 5% acetonitrile 3 min, to 50% in 2 min, to 85% in 15 min, held 3 min, 100 µL/min. As to conditions: column: Zorbax Extend-C18 2.1 x 50 mm; eluents: water / acetonitrile, 0.1% formic acid. The method in brief: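 Using water and acetonitrile that each contained 0.1% formic acid, mixtures of ~100 pure standards were separated at 100 μL/min on a Zorbax Extend-C18 column (2.1 × 50 mm, 1.8 μm). The HPLC fed a quadrupole time-of-flight mass spectrometer working in positive and negative ionization mode, with dead and dwell volumes of 40 μL and 900 μL. Data were acquired over 3 months. Retention time was read from computationally picked adduct peaks after manual inspection of each.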
`CN(C)C(=O)c1cccnc1OC1CCN(C(=O)c2ccc(Br)o2)C1` (stereo not given): the RP-LC retention time is 663 s.

Compound `CN1CCC(NC(=O)c2ncoc2-c2ccccc2)CC1` registered an RP-LC retention time of 602 s.

`CC(=O)N1CCc2nn(CC(=O)Nc3ccc(Cl)cc3F)c(=O)cc2C1` showed an RP-LC retention time of 663 s.

`O=C(CCn1cnc2cc(-c3noc(-c4cccc5[nH]ccc45)n3)ccc21)N1CCCC1` gave an RP-LC retention time of 701 s.

Regarding `CCc1c(C(=O)O)nnn1-c1cccc(OC)c1`, the RP-LC retention time amounted to 704 s.

With `O=C(Cn1ccc2ccccc21)NCCCC(=O)Nc1cccc2cccnc12`, the RP-LC retention time was 786 s.

The compound `CCOc1ccc2ncc(C(=O)c3ccc(C)cc3)c(N3CCN(C)CC3)c2c1` yielded an RP-LC retention time of 561 s.

In the case of `NC(=O)C1CCN(C(=O)CSc2nnnn2-c2ccccc2)CC1`, the RP-LC retention time is 621 s.

Take `Cc1ccc(NC(=O)Cn2cnc3c(c2=O)CCCC3)cc1`: the RP-LC retention time was 710 s.

`Cc1cc(-c2nnc(C3CCC3)o2)c(C)n1CC(=O)Nc1ccc(F)c(F)c1` came in with an RP-LC retention time of 915 s.

`COc1cc(NC(=O)Nc2nccn(-c3ccccc3)c2=O)cc(OC)c1`: the RP-LC retention time was determined as 886 s.

Compound `COc1cccc(C2Cn3nnc(-c4nc(-c5cccc(F)c5)no4)c3CO2)c1` (stereo not given) showed an RP-LC retention time of 1130 s.

`Cn1nc(N2CCC(NC(=O)c3nccc4ccccc34)C2)ccc1=O` (stereo not given) showed an RP-LC retention time of 695 s.

`Cc1[nH]c2ccc(F)cc2c1CCNCc1ccccn1` showed an RP-LC retention time of 572 s.

In turn, `OC1(c2ccccn2)CCOC2(CCN(Cc3ccc(Cl)cc3F)CC2)C1` (stereo not given) came in with an RP-LC retention time of 579 s.

`O=C1OCC/C1=C\c1ccc(O)cc1` yielded an RP-LC retention time of 711 s.

On to `CC(NC(=O)c1ccc(N(C)C)cc1)C(=O)N1CCCc2ccccc21` (stereo not given), for which the RP-LC retention time was determined as 846 s.

`Cc1oc(C2CCN(S(=O)(=O)c3cccs3)CC2)nc1C(=O)N1CCCC1` returned an RP-LC retention time of 856 s.

Compound `CCn1c(C(=O)Nc2ccc(C)c(C)c2)cc2sc(Cl)cc21` came in with an RP-LC retention time of 1300 s.

In turn, `Cc1cc(C)cc(Oc2nccn3c(=O)n(CC(=O)Nc4cc(Cl)ccc4C)nc23)c1` came in with an RP-LC retention time of 1050 s.

Compound `O=C(c1cccc(C(F)(F)F)c1)N1CCN(c2nc(CN3CCCCC3)cs2)CC1` returned an RP-LC retention time of 684 s.

As to `CCN1C(=O)C(CC(=O)NCC(C)C)Sc2ncccc21` (stereo not given), the RP-LC retention time worked out at 689 s.

As for `CCc1cc(-c2csc(S(=O)(=O)NCc3ccc(OC(C)C)cc3)c2)on1`, the RP-LC retention time came to 1070 s.

In turn, `CC(=O)N1CC[C@]2(CO)CN(C(=O)c3ccsc3)C[C@@H]2C1` returned an RP-LC retention time of 565 s.

Compound `Cc1ccc(NC(=O)C2CCCN(C(=O)C3Sc4ccccc4NC3=O)C2)cc1Cl` (stereo not given) gave an RP-LC retention time of 893 s.

Regarding `CCn1nc(C)c(CCNC(=O)c2cc3c(=O)n(Cc4cccnc4)ccc3nc2C)c1C`, the RP-LC retention time was found to be 563 s.

As to `C=CCN1CCc2c(cc(O)c(O)c2Cl)C(c2ccccc2)C1` (stereo not given), the RP-LC retention time was determined as 666 s.

As to `Cc1cc(OCC(=O)Nc2cccc(Cl)c2)nc(N2CCN(c3ccccc3)CC2)n1`, the RP-LC retention time turned out to be 904 s.

Compound `CCNC(=O)C1CCCN(c2nc3ncn(CC(=O)NC4CCCCC4)c(=O)c3s2)C1` (stereo not given) came in with an RP-LC retention time of 658 s.

On to `Cn1c(=O)c2cc(C(=O)Nc3ccc(F)cc3)cnc2n(-c2ccccc2)c1=O`, for which the RP-LC retention time turned out to be 868 s.

In turn, `CCc1nnc2nc(N3CCN(C(=O)Cc4cc(OC)cc(OC)c4)CC3)cc(C)n12` returned an RP-LC retention time of 623 s.

For the compound `CCOc1cc(CNC(=O)C2CCCN(c3nc4ccccc4n(CC)c3=O)C2)ccc1OC` (stereo not given), the RP-LC retention time was 936 s.

Compound `COc1ccc(-c2cn3cccnc3n2)cc1NC(=O)c1cc(Br)ccc1Cl` registered an RP-LC retention time of 768 s.

The compound `O=C(CSc1nnc(Cc2ccccc2)o1)Nc1nc(-c2ccccc2)cs1` gave an RP-LC retention time of 936 s.

With `Cc1ccc(-c2nc(CN3CCOCC3)c(C)o2)cc1`, the RP-LC retention time turned out to be 640 s.

`CCn1c(=O)n(CC(=O)N(C)C2CCCCC2)c(=O)c2cnc(-c3ccccc3)nc21` returned an RP-LC retention time of 1130 s.

Compound `c1ccc(CN2CCN(c3c4c(nc5nc(-c6ccccc6)nn35)CCCC4)CC2)cc1` registered an RP-LC retention time of 668 s.

For the compound `CC(=O)c1cccc(NC(=O)COc2cc(C)nc(N3CCCC3)n2)c1`, the RP-LC retention time is 616 s.

Turning to `CCc1nc2cc(-c3noc(Cc4cc(OC)cc(OC)c4)n3)ccc2o1`, the RP-LC retention time is 1080 s.

For the compound `CC(C)Cn1cc(CCNC(=O)c2ccc(F)c(Cl)c2)c2cccnc21`, the RP-LC retention time is 909 s.

Turning to `Cc1ccccc1Cn1c(CN2CCC(C(=O)NCCC(C)C)CC2)cc2ccccc21`, the RP-LC retention time is 822 s.

Consider `Cc1nc(-c2ccc(F)cc2)sc1C(=O)N(C)C`, for which the RP-LC retention time was 767 s.

Take `CC1=C(c2ccccc2)S(=O)(=O)N=C1N1CCCN(C(=O)C2CC2)CC1`: the RP-LC retention time was 991 s.

The compound `C1CCCC(NC2=NCCO2)CCC1` had an RP-LC retention time of 680 s.

Compound `CCCOc1nccnc1N1CCC(N(C)C(=O)Cc2cccnc2)C1` (stereo not given) returned an RP-LC retention time of 599 s.

In turn, `CC(CCc1ccco1)NC(=O)C1CCc2nc(N3CCCCC3)ncc2C1` (stereo not given) displayed an RP-LC retention time of 777 s.

`CCCN1C(=O)c2cc(C(=O)NCCc3ccccc3)nn2CC1(C)C(=O)NC1CCCC1` (stereo not given) had an RP-LC retention time of 864 s.

Consider `CCc1nc(-n2cccc2)sc1C(=O)Nc1ccccc1F`, for which the RP-LC retention time came out at 1100 s.

As to `CCOC(=O)C1CCCN(c2nc(-c3ccc(Cl)cc3)nc3ccccc23)C1` (stereo not given), the RP-LC retention time was 936 s.

In turn, `CC(C)Cc1nc(N2CCN(C(=O)c3ccco3)CC2)c(C#N)c2c1COC(C)(C)C2` displayed an RP-LC retention time of 1180 s.

On to `O=C(Nc1ccccc1Cl)c1cnc(-c2ccc(F)cc2)nc1-c1ccncc1`, for which the RP-LC retention time was 1000 s.

`COc1ccc(OCC(=O)N2CCc3c(c(C(=O)N4CCCC(C(=O)NC5CC5)C4)nn3C)C2)cc1` (stereo not given): the RP-LC retention time came to 657 s.

Regarding `Cn1c(=O)c2c(Nc3ccc(C(F)(F)F)cc3)ccnc2n(C)c1=O`, the RP-LC retention time came out at 1010 s.

Take `O=C(Cn1cnc2c(-c3ccc(F)cc3)csc2c1=O)NC1CCCC1`: the RP-LC retention time was found to be 854 s.

In the case of `CCCCOc1ccc(-c2cc3c4nnc(CCC(=O)N5CCN(C)CC5)n4ccn3n2)cc1`, the RP-LC retention time came out at 686 s.

With `CCc1ccc(NC(=O)N2CCC(OC3CCN(S(C)(=O)=O)CC3)CC2)cc1`, the RP-LC retention time stood at 770 s.

`Cc1ccccc1NC(=O)N1CCC2(C1)C(=O)N(C)c1ccccc12` (stereo not given): the RP-LC retention time amounted to 772 s.

`CC(C)(C)NC(=O)Cn1ccn2nc(-c3ccc(F)cc3)c(CO)c2c1=O` yielded an RP-LC retention time of 738 s.

The compound `Cc1noc(-c2cccc(OC3CN(C(=O)Cc4ccsc4)C3)c2)n1` displayed an RP-LC retention time of 857 s.

`CCC1CN(C(=O)N2CCC(C(=O)NCCN3CCN(C)CC3)CC2)c2cc(C)ccc2O1` (stereo not given): the RP-LC retention time worked out at 619 s.

Regarding `Cc1cccc(NC(=O)Cn2c(=O)n3nc(CCn4nc(C)cc4C)nc3c3ccccc32)c1`, the RP-LC retention time was 775 s.

The compound `O=C(NCCOc1ccc(-c2ccccn2)nn1)c1cccs1` returned an RP-LC retention time of 586 s.

In the case of `COC(=O)c1cnc2nc(C)ccc2c1Nc1cc(OC)c(OC)c(OC)c1`, the RP-LC retention time worked out at 643 s.

For the compound `O=C(Cn1c(N2CCCCC2)nc2ccccc2c1=O)N1CCN(c2ccccn2)CC1`, the RP-LC retention time was 643 s.

`O=c1c2nc(-c3ccc(F)cc3F)cn2ccn1-c1cccc(Cl)c1`: the RP-LC retention time came to 949 s.

Compound `COCc1noc([C@@H]2CC(F)(F)CN2C(=O)c2c(C)noc2C)n1` gave an RP-LC retention time of 705 s.

As to `CN(C(=O)CN(Cc1ccc(Cl)cc1)S(=O)(=O)c1cccnc1)c1ccccc1`, the RP-LC retention time came out at 917 s.

In the case of `Cc1ccc(N2C(=O)C3N=NN(Cc4nc(-c5ccccc5C)no4)C3C2=O)cc1C` (stereo not given), the RP-LC retention time came to 1060 s.

As for `CCN(CC)S(=O)(=O)c1cc(-c2nnc(-c3ccc(OC)cc3)o2)ccc1C`, the RP-LC retention time is 1030 s.

Take `O=C(Cc1ccccc1F)NCC(=O)Nc1nc2ccccc2[nH]1`: the RP-LC retention time worked out at 632 s.

`O=C(Nc1ccc(CCc2nc3ccccc3n2-c2ccccc2)cc1)c1cnccn1`: the RP-LC retention time is 694 s.

The compound `CCN(CCCNC(=O)c1nnc(-c2ccc(S(=O)(=O)N3CCCC3)cc2)o1)Cc1ccccc1` displayed an RP-LC retention time of 661 s.

On to `Cc1ccc(C(C)NC(=O)CN2C(=O)NC3(CCCCC3)C2=O)cc1` (stereo not given), for which the RP-LC retention time came out at 804 s.

`CCc1ccc(-n2ncc3c(=O)n(Cc4nc(-c5ccccc5OC)no4)cnc32)cc1` came in with an RP-LC retention time of 1040 s.

`Cc1[nH]c(=O)[nH]c(=O)c1CC(=O)NCCn1nc(-c2ccco2)ccc1=O` yielded an RP-LC retention time of 552 s.

On to `Cc1ccc2[nH]cc(CCNC(=O)NC3CCCCC3)c2c1`, for which the RP-LC retention time worked out at 874 s.

In turn, `O=C1CC(c2cccc(F)c2)c2c(c(C(=O)O)cn2-c2ccc(F)cc2)N1` (stereo not given) yielded an RP-LC retention time of 774 s.

As for `CCn1cc(C(=O)NCc2ccc3c(c2)OCO3)c2cccnc21`, the RP-LC retention time amounted to 755 s.

In turn, `CCn1ccc(C(=O)N2c3ccccc3CC2c2nc(C(C)C)no2)n1` (stereo not given) showed an RP-LC retention time of 970 s.

`CN1CC(=O)N(CC(=O)N2CCN(c3ccc(Cl)cc3)CC2)c2ccccc2C1=O` gave an RP-LC retention time of 746 s.

The values are drawn from the METLIN SMRT retention time set (Domingo-Almenara et al. 2019).
